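Assay format: 96-well plates, 48-hour exposure. GI50: concentration for 50% inhibition of growth. The concentration for full growth arrest is given as TGI.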
Columns and labels:
Assay in all cases: NCI-60 cell line screen, 48 h
NCI-H226 lung = tested on: NCI-H226 lung
NCI-H23 lung = tested on: NCI-H23 lung
NCI-H460 lung = tested on: NCI-H460 lung
NCI-H522 lung = tested on: NCI-H522 lung
NCI/ADR-RES ovarian = tested on: NCI/ADR-RES ovarian
OVCAR-4 ovarian = tested on: OVCAR-4 ovarian
OVCAR-5 ovarian = tested on: OVCAR-5 ovarian
OVCAR-8 ovarian = tested on: OVCAR-8 ovarian
PC-3 prostate = tested on: PC-3 prostate
RPMI-8226 leukemia = tested on: RPMI-8226 leukemia
RXF 393 renal = tested on: RXF 393 renal
SF-268 CNS = tested on: SF-268 CNS
SF-295 CNS = tested on: SF-295 CNS
SF-539 CNS = tested on: SF-539 CNS
SK-MEL-28 melanoma = tested on: SK-MEL-28 melanoma
SK-MEL-5 melanoma = tested on: SK-MEL-5 melanoma
SK-OV-3 ovarian = tested on: SK-OV-3 ovarian
SN12C renal = tested on: SN12C renal
SNB-19 CNS = tested on: SNB-19 CNS
SNB-75 CNS = tested on: SNB-75 CNS
SR leukemia = tested on: SR leukemia
SW-620 colon = tested on: SW-620 colon
T-47D breast = tested on: T-47D breast
TK-10 renal = tested on: TK-10 renal
U251 CNS = tested on: U251 CNS
UACC-257 melanoma = tested on: UACC-257 melanoma
UACC-62 melanoma = tested on: UACC-62 melanoma
UO-31 renal = tested on: UO-31 renal

## CC(=O)/C(N=Nc1ccc2oc(=O)ccc2c1)=C(\C)O
NCI-H226 lung
  GI50: 2.48 µM
  TGI: 15.2 µM
NCI-H23 lung
  GI50: 3.37 µM
  TGI: 15.8 µM
NCI-H460 lung
  GI50: 2.11 µM
  TGI: 12.1 µM
NCI-H522 lung
  GI50: 2.12 µM
  TGI: 10.8 µM
NCI/ADR-RES ovarian
  GI50: 0.29 µM
  TGI: 13.2 µM
OVCAR-4 ovarian
  GI50: 3.81 µM
  TGI: 18.7 µM
OVCAR-5 ovarian
  GI50: 5.04 µM
  TGI: 18.4 µM
OVCAR-8 ovarian
  GI50: 2.72 µM
  TGI: 13.6 µM
PC-3 prostate
  GI50: 2.73 µM
  TGI: 12.3 µM
RPMI-8226 leukemia
  GI50: 1.89 µM
  TGI: 11.4 µM
RXF 393 renal
  GI50: 2.99 µM
  TGI: 16.3 µM
SF-268 CNS
  GI50: 5.14 µM
  TGI: 21.1 µM
SF-295 CNS
  GI50: 2.22 µM
  TGI: 12.7 µM
SF-539 CNS
  GI50: 4.11 µM
  TGI: 14.1 µM
SK-MEL-28 melanoma
  GI50: 4.53 µM
  TGI: 16.4 µM
SK-MEL-5 melanoma
  GI50: 2.09 µM
  TGI: 4.92 µM
SK-OV-3 ovarian
  GI50: 4.31 µM
  TGI: 15.1 µM
SN12C renal
  GI50: 2.58 µM
  TGI: 14.7 µM
SNB-19 CNS
  GI50: 3.39 µM
  TGI: 15 µM
SNB-75 CNS
  GI50: 5 µM
  TGI: 18.6 µM
SR leukemia
  GI50: 1.67 µM
  TGI: 7.73 µM
SW-620 colon
  GI50: 3.15 µM
  TGI: 13.7 µM
T-47D breast
  GI50: 1.84 µM
  TGI: 9.19 µM
TK-10 renal
  GI50: 2.35 µM
  TGI: 12.7 µM
U251 CNS
  GI50: 2.77 µM
  TGI: 12.5 µM
UACC-257 melanoma
  GI50: 3.36 µM
  TGI: 14.8 µM
UACC-62 melanoma
  GI50: 2.64 µM
  TGI: 12.2 µM
UO-31 renal
  GI50: 0.355 µM
  TGI: 11.8 µM

Source: PubChem BioAssay (NCI)
